The text below walks through data of PubChem BioAssay (NCI).

Values joined by “and” are separate entries in the source; they are usually repeats but may differ in a detail not shown here. Equal values may be shown once.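 Grown in 96-well plates, cells were treated for 48 hours with each compound at five concentrations. Insufficient inhibition: endpoint recorded as highest concentration tested. GI50 is the concentration that inhibits growth by half. TGI marks complete inhibition of growth.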 A value given as a limit tells only on which side of the number the result lay.

Test systems include DU-145 prostate; K-562 leukemia; NCI-H522 lung; OVCAR-3 ovarian; OVCAR-4 ovarian; OVCAR-5 ovarian; OVCAR-8 ovarian; SK-MEL-28 melanoma; SR leukemia; U251 CNS.
What all share (assay): growth of human tumour cells (NCI), 48 h

Take `C[C@@H]1C/C=C\C(=O)O[C@H](/C=C/C#C/C=C/C(C)(C)[C@@H](O)c2cccc(O)c2Br)[C@@H](C)/C=C/[C@H](C)C[C@H](OC(N)=O)C1`: the GI50 in the assay with DU-145 prostate is 0.0663 µM; with K-562 leukemia it was 0.0332 µM; in the assay on NCI-H522 lung, 0.0417 µM; with OVCAR-3 ovarian it was 0.0636 µM; with OVCAR-4 ovarian, 6.45 µM; in the assay with OVCAR-5 ovarian, 0.0322 µM. Besides, the GI50 in the assay on OVCAR-8 ovarian is 0.0512 µM; in the assay on SK-MEL-28 melanoma, 0.278 µM; with SR leukemia, 0.0273 µM; in the assay with U251 CNS, 0.0706 µM. For the same molecule, the TGI in the assay with DU-145 prostate was 19.4 µM; in the assay with K-562 leukemia, over 32.7 µM; in the assay on NCI-H522 lung, 14.7 µM; in the assay with OVCAR-3 ovarian, 15.7 µM; with OVCAR-4 ovarian it was 22 µM; with OVCAR-5 ovarian it was 18.3 µM. The TGI was 23.2 µM with OVCAR-8 ovarian, 12.9 µM in the assay on SK-MEL-28 melanoma, over 100 µM with SR leukemia and 18.3 µM in the assay with U251 CNS.
Take `CC(=O)Oc1ccc(C2(c3ccc(OC(C)=O)cc3)C(=O)Nc3ccccc32)cc1`: the GI50 in the assay with DU-145 prostate was 24.4 µM and 28.7 µM; in the assay with K-562 leukemia, 17.3 µM and 42.2 µM; in the assay with NCI-H522 lung, 3.12 µM and 4.56 µM; with OVCAR-3 ovarian, 0.081 µM and 0.131 µM; in the assay on OVCAR-4 ovarian, 0.0347 µM and 0.0389 µM; in the assay on OVCAR-5 ovarian, over 70.8 µM. Moreover, the GI50 in the assay with OVCAR-8 ovarian is 0.292 µM and 0.408 µM; in the assay with SK-MEL-28 melanoma, 35.1 µM and 34.2 µM; with SR leukemia it was 25.1 µM and 24.2 µM; in the assay on U251 CNS, 33.6 µM and 41.4 µM. Further, the TGI in the assay with DU-145 prostate is > 70.4 µM and 95.3 µM; with K-562 leukemia, over 87.3 µM; in the assay on NCI-H522 lung, over 100 µM; with OVCAR-3 ovarian, > 35.8 µM and 26 µM; in the assay on OVCAR-4 ovarian, 1.42 µM; in the assay with OVCAR-5 ovarian it was over 100 µM. Besides, the TGI in the assay with OVCAR-8 ovarian, in the assay on SK-MEL-28 melanoma, in the assay with SR leukemia and in the assay with U251 CNS was over 100 µM each time.
With `CCC(=O)c1cc([N+](=O)[O-])c(Br)s1`, the GI50 was 4.31 µM in the assay on DU-145 prostate; 2.16 µM in the assay with K-562 leukemia; 0.904 µM in the assay with NCI-H522 lung; 1.91 µM in the assay on OVCAR-3 ovarian; 1.86 µM with OVCAR-4 ovarian; 16.6 µM in the assay on OVCAR-5 ovarian. The GI50 with OVCAR-8 ovarian was 2.23 µM; in the assay on SK-MEL-28 melanoma, 4.17 µM; with SR leukemia it was 1.2 µM; in the assay on U251 CNS, 1.85 µM. Moreover, the TGI with DU-145 prostate was determined as 13.3 µM; in the assay on K-562 leukemia it was 6.82 µM; in the assay with NCI-H522 lung it was 2.2 µM; in the assay with OVCAR-3 ovarian, 3.32 µM; with OVCAR-4 ovarian, 3.65 µM; in the assay with OVCAR-5 ovarian, 32.1 µM. The TGI in the assay on OVCAR-8 ovarian came out at 5.04 µM; in the assay on SK-MEL-28 melanoma, 15.2 µM; in the assay with SR leukemia, 3.71 µM; with U251 CNS it was 4.02 µM.
As for `COc1ccc(-c2nc3c(c(=O)n2C(C)=O)C(c2ccc(Cl)cc2)c2sc4c(Cl)cccc4c2O3)cc1` (configuration not stated), the GI50 with DU-145 prostate was 0.394 µM; with K-562 leukemia it was 0.26 µM; in the assay on NCI-H522 lung, 0.259 µM; in the assay with OVCAR-3 ovarian it was 0.383 µM; in the assay on OVCAR-4 ovarian, 0.845 µM; with OVCAR-5 ovarian it was 1.2 µM. Moreover, the GI50 with OVCAR-8 ovarian is 0.5 µM; in the assay with SK-MEL-28 melanoma, 1.15 µM; in the assay on SR leukemia, 0.354 µM; in the assay on U251 CNS, 0.483 µM. The TGI with DU-145 prostate was determined as 1.96 µM; in the assay on K-562 leukemia, 2.7 µM; in the assay with NCI-H522 lung, 1.48 µM; in the assay on OVCAR-3 ovarian, 1.85 µM; in the assay on OVCAR-4 ovarian, 3.66 µM; in the assay with OVCAR-5 ovarian it was 3.4 µM. In addition, the TGI worked out at 2.37 µM in the assay on OVCAR-8 ovarian, 3.39 µM in the assay on SK-MEL-28 melanoma, 5.05 µM with SR leukemia and 1.76 µM in the assay on U251 CNS.
For the molecule `CCCCCCCCCCCCCCCCS(=O)(=O)c1ccc(NN)cc1`, the TGI with DU-145 prostate, with K-562 leukemia, in the assay with NCI-H522 lung, in the assay with OVCAR-3 ovarian, in the assay with OVCAR-4 ovarian and with OVCAR-5 ovarian was over 10 µM throughout. The TGI in the assay with OVCAR-8 ovarian, in the assay with SK-MEL-28 melanoma, in the assay on SR leukemia and in the assay on U251 CNS was over 10 µM in each case.
For the molecule `Cc1ccc(/C=C2\CNC/C(=C\c3ccc(C)cc3)C2=O)cc1`, the TGI is 16 µM with DU-145 prostate; 2.68 µM in the assay with K-562 leukemia; 3.04 µM and 4.63 µM in the assay with NCI-H522 lung; 4.04 µM and 23.1 µM with OVCAR-4 ovarian; 3.56 µM and 33.9 µM in the assay on OVCAR-5 ovarian; 2.44 µM and 5.63 µM with OVCAR-8 ovarian. Also, the TGI was 4.05 µM and 4.83 µM in the assay with SK-MEL-28 melanoma; 2.87 µM and 1.83 µM in the assay with SR leukemia; 0.707 µM and 1.76 µM with U251 CNS. Further, the GI50 is 1.14 µM in the assay on K-562 leukemia; 1.64 µM with NCI-H522 lung; 1.27 µM with OVCAR-3 ovarian; 1.89 µM in the assay on OVCAR-4 ovarian; 1.89 µM in the assay with OVCAR-5 ovarian; 0.587 µM with OVCAR-8 ovarian. The GI50 is 0.565 µM with SR leukemia and 0.227 µM in the assay on U251 CNS.
For `O=C(O)C1C2C=CC(O2)C1C(=O)Nc1ncccn1` (configuration not stated), the TGI in the assay on DU-145 prostate, with K-562 leukemia, in the assay on NCI-H522 lung, with OVCAR-3 ovarian, in the assay on OVCAR-4 ovarian and in the assay with OVCAR-5 ovarian was over 100 µM each time. Also, the TGI with OVCAR-8 ovarian, in the assay on SK-MEL-28 melanoma, with SR leukemia and in the assay with U251 CNS was over 100 µM each time.
For `C=CC(=O)Nc1cccc(Nc2nc(Nc3ccc(OCCOC(F)F)cc3)ncc2F)c1`, the GI50 in the assay with DU-145 prostate is 1.96 µM; in the assay on K-562 leukemia, 3.07 µM; with NCI-H522 lung, 1.88 µM; in the assay with OVCAR-3 ovarian, 2.32 µM; in the assay on OVCAR-4 ovarian, 2.66 µM; in the assay with OVCAR-5 ovarian, 4.12 µM. Moreover, the GI50 in the assay with OVCAR-8 ovarian is 3.33 µM; in the assay with SK-MEL-28 melanoma, 7.36 µM; in the assay with SR leukemia it was 2.88 µM; with U251 CNS, 2.39 µM. In addition, the TGI in the assay with DU-145 prostate was over 100 µM; in the assay with K-562 leukemia, over 100 µM; in the assay on NCI-H522 lung, 7.44 µM; with OVCAR-3 ovarian, 14.1 µM; in the assay on OVCAR-4 ovarian it was over 100 µM; in the assay on OVCAR-5 ovarian, over 100 µM. The TGI in the assay with OVCAR-8 ovarian was 19.4 µM; in the assay with SK-MEL-28 melanoma, over 100 µM; in the assay with SR leukemia, over 100 µM; in the assay on U251 CNS it was 18.9 µM.
As to `NC(=O)C(=O)n1ncc(Cl)c(Cl)c1=O`, the TGI in the assay on DU-145 prostate was over 100 µM; in the assay on K-562 leukemia, 47 µM; in the assay with NCI-H522 lung it was 20.6 µM; with OVCAR-3 ovarian it was 50.8 µM; with OVCAR-4 ovarian, 46.9 µM; in the assay on OVCAR-5 ovarian, 63.1 µM. The TGI in the assay on OVCAR-8 ovarian was 65.9 µM; in the assay on SK-MEL-28 melanoma it was 30.5 µM; in the assay on SR leukemia, over 49.7 µM; with U251 CNS, over 60.3 µM.
